Experimental data as given in US20250009716A1, “NOVEL INHIBITORS OF CLAUDIN-1 FOR THERAPEUTIC INTERVENTIONS” (BOARD OF REGENTS OF THE UNIVERSITY OF NEBRASKA, priority 2021, published 2025).

Experiments:
Type in all cases: cell-based
SW480claudin-1 cells = assay: Resistance to anoikis in claudin-1 overexpressing cells; conditions: 72 h treatment
Description: The crystal structure of claudin-1 is unknown. Therefore, an in-silico protein folding program, YASARA, was used to identify an effective claudin-1 inhibitor. The resultant 3D-structure was then modeled using Molegro Virtual Docker (MVD) software program. These in-silico analyses identified putative cavities in the claudin-1 protein that can be targeted by small molecule inhibitors. Next, a 100K library of small molecules was screened in silico using the MVD. The top 10 inhibitors that bound to the Site #3 (targeting near c-terminal domain; the most accessible pocket; FIG. 2A) with the best binding energies were selected as hits and used for further testing. Screening of these inhibitors named Inihibitor-1 (1-1) to Inhibitor-10 (I-10) was done using SW480claudin-1, SW620 and control cells. Claudin-1 deficient HCT116 cells (WT-APC) or SW620shRNAcld-1 were used as negative controls. Resistance to anoikis and cell invasion was used as biological end-points in testing these inhibitors. […] 16 has the following structure:
(§1) To this end, a library of molecules was synthesized in order to develop an initial SAR evaluation. The first compounds tested eliminated the acylated (thio) urea as well as the napthyl group and evaluated just the urea/phenyl compounds (Compounds 1-6). The methoxy group of the naphthalene ring system was needed when the benzimidazole group was present (16 vs. Compound 8). […] The result of metabolic stability was expressed as the percentage of drug remaining at each time. […] To further determine the effect of PDS-0330 on p-Src expression and association, cells were treated with Compound 1, 16 and PDS-0330. Expression and association with p-Src was unaffected with Compound 1 (negative control). The specificity of PDS-0330 for CLDN1 was further confirmed by treating SW480^CLDN1, HCT116^CLDN2 (overexpressing another tight junction protein) or normal IEC-6 cells with PDS-0330 (FIG. 12).

[1] = target: T1, claudin-1/Src complex in SW480claudin-1 cells (Homo sapiens, UniProt O95832); assay: Claudin-1/Src association (proximity ligation assay, Co-IP); conditions: PLA, Co-IP or immuno-precipitation
T1 construct: claudin-1 was expressed in a non-metastatic CRC cell line, SW480 cells; expressed in transfected cells; host or cells: SW480 colorectal cancer cells expressing claudin-1 (SW480claudin-1)
T1 sequence (O95832 1-211): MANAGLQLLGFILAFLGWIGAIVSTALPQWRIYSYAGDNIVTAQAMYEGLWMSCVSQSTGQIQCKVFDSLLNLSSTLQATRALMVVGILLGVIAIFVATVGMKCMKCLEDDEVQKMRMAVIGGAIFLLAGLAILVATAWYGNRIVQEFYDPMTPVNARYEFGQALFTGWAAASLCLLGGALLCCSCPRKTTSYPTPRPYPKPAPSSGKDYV
Description: The CSC cells contribute to the generation of metastasis (16-19), and key CSC characteristics are highly relevant to metastasis, including invasive motility, and, resistance to apoptosis (20,21). […] Considering that chemoresistance is central to the CRC progression and metastasis, we further tested if adjuvant use of 16 with 5FU can have significant bearing upon these traits. Colon cancer cells were subjected to exogenous administration of 16 alone, or in combination with the 5-FU, the conventional anti-CRC drug. […] To further determine the mechanistic details the effect of 16 on association of claudin-1 and Src, SW480claudin-1 cells were treated with 16 or the vehicle and resultant cell lysate was subjected to Proximity ligation assay (PLA) or Co—IP.

[2] = tested on: p-Src and c-PARP in SW480claudin-1 overexpressing cells; assay: Expression of p-Src, Src and c-PARP
Description: as §1
Furthermore, DLD-1 chemoresistant cells were treated with PDS-0330 and I-6. […] Based on the in vitro activity and metabolic stability, PDS-0330, and any potential new analogs will be evaluated in animal models to determine the pharmacokinetic properties and biodistribution as described in preliminary data.

COc1ccccc1NC(=O)Nc1ccc(-c2nc3ccccc3[nH]2)cc1 [Compound 1]
effect on resistance to anoikis (SW480claudin-1 cells): not much change
claudin-1/Src (p-Src) association [1]: unaffected
p-Src expression [2]: unaffected
